Test results from patent US20110160196A1, “FACTOR XA INHIBITORS” (Millennium Pharmaceuticals, Inc., priority 2007, published 2011).

Target: T1, human plasma protein factor Xa (Homo sapiens, UniProt P00742)
T1 construct: The human plasma protein factor Xa was purchased; purchased Haematologic Technologies (Essex Junction, Vt.); host or cells: human plasma
Test: Factor Xa IC50 determination (cleavage of paranitroanilide substrate S-2765)
Format: biochemical
Conditions: factor Xa 1 nM, S-2765 100 μM, Tris buffered saline pH 7.4, read at 405 nm
In short: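 Human plasma factor Xa (1 nM) preincubated 5 min at room temperature with inhibitor (0.01 nM–10 μM) in Tris-buffered saline pH 7.4 with 5 mM CaCl2, 0.1% BSA, 5% DMSO. S-2765 added at 100 μM final; pNA release followed at 405 nm for 2 min. IC50 from four-parameter fit of initial velocities.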

T1 sequence (P00742 235-488 limits assumed): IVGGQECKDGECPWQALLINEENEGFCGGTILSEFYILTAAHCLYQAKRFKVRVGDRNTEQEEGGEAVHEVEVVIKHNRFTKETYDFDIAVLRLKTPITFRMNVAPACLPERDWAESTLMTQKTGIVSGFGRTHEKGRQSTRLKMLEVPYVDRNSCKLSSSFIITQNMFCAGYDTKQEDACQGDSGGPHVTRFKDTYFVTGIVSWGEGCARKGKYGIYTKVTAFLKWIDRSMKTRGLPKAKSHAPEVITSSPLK
T1 sequence (P00742 41-179 partner limits assumed): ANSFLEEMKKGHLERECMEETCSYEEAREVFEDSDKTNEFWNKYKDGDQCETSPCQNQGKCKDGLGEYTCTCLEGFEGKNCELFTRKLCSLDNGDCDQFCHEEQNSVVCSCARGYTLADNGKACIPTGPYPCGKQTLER

IC50 [nM]	Structure (SMILES)
≤ 100	CC(=O)N1CCN(c2cc(-n3ccccc3=O)ccc2-n2cc(CNC(=O)c3ccc(Cl)s3)nn2)CC1 [Compound 13, N-((1-(2-(4-Acetylpiperazin-1-yl)-4-(2-oxopyridin-1(2H)-yl)phenyl)-1H-1,2,3-triazol-4-yl)methyl)-5-chlorothiophene-2-carboxamide]
≤ 100	CN(C)CCCOc1cc(-n2ccccc2=O)ccc1-n1cc(CNC(=O)c2ccc(Cl)s2)nn1 [Compound 92, 5-Chloro-N-((1-(2-(3-(dimethylamino)propoxy)-4-(2-oxopyridin-1(2H)-yl)phenyl)-1H-1,2,3-triazol-4-yl)methyl)thiophene-2-carboxamide]
≤ 100	O=C(NCc1cn(-c2ccc(-n3ccccc3=O)cc2OCCN2CCCCC2)nn1)c1ccc(Cl)s1 [Compound 89, 5-Chloro-N-((1-(4-(2-oxopyridin-1(2H)-yl)-2-(2-(piperidin-1-yl)ethoxy)phenyl)-1H-1,2,3-triazol-4-yl)methyl)thiophene-2-carboxamide]
≤ 100	O=C(NCc1cn(-c2ccc(-n3ccccc3=O)cc2OCCn2ccnc2)nn1)c1ccc(Cl)s1 [Compound 148, N-((1-(2-(2-(1H-Imidazol-1-yl)ethoxy)-4-(2-oxopyridin-1(2H)-yl)phenyl)-1H-1,2,3-triazol-4-yl)methyl)-5-chlorothiophene-2-carboxamide]
100 to 500	O=C(NCc1cn(-c2ccc(-n3ccccc3=O)cc2C(=O)NCCO)nn1)c1ccc(Cl)s1 [Compound 104, N-((1-(2-((2-Hydroxyethyl)carbamoyl)-4-(2-oxopyridin-1(2H)-yl)phenyl)-1H-1,2,3-triazol-4-yl)methyl)-5-chlorothiophene-2-carboxamide]
≤ 100	O=C(NCc1cn(-c2ccc(-n3ccccc3=O)cc2CN2CCOCC2)nn1)c1ccc(Cl)s1 [Compound 160, 5-Chloro-N-((1-(2-(morpholinomethyl)-4-(2-oxopyridin-1(2H)-yl)phenyl)-1H-1,2,3-triazol-4-yl)methyl)thiophene-2-carboxamide]
≤ 100	O=C1CN(c2cc(N3CCCCC3=O)ccc2-n2cc(CNC(=O)c3ccc(Cl)s3)nn2)CCN1 [Compound 159, 5-Chloro-N-((1-(2-(3-oxopiperazin-1-yl)-4-(2-oxopiperidin-1-yl)phenyl)-1H-1,2,3-triazol-4-yl)methyl)thiophene-2-carboxamide]
≤ 100	O=C(NCc1cn(-c2ccc(-n3ccccc3=O)cc2CN2CCS(=O)(=O)CC2)nn1)c1ccc(Cl)s1 [Compound 163, 5-Chloro-N-((1-(4-(2-oxopyridin-1(2H)-yl)-2-(1,1,- dioxothiomorpholinomethyl)phenyl)-1H-1,2,3-triazol-4-yl)methyl)thiophene-2-carboxamide]
≤ 100	O=C(NCc1cn(-c2ccc(-n3ccccc3=O)cc2OCCCN2C(=O)c3ccccc3C2=O)nn1)c1ccc(Cl)s1 [Compound 67, 5-Chloro-N-((1-(2-(3-(1,3-dioxoisoindolin-2-yl)propoxy)-4-(2-oxopyridin-1(2H)-yl)phenyl)-1H-1,2,3-triazol-4-yl)methyl)thiophene-2-carboxamide]

Further lines, the molecule ahead of its results:

Structure (SMILES)	IC50 [nM]
NC(=O)NC1CCN(c2cc(-n3ccccc3=O)ccc2-n2cc(CNC(=O)c3ccc(Cl)s3)nn2)CC1 [Compound 20, 1-(1-(2-(4-((2-Chlorothiophene-5-carboxamido)methyl)-1H-1,2,3-triazol-1-yl)-5-(2-oxopyridin-l(2H)-yl)phenyl)piperidin-4-yl)urea]	≤ 100
O=C(NCc1cn(-c2ccc(-n3ccccc3=O)cc2OCCn2cccc2)nn1)c1ccc(Cl)s1 [Compound 180, N-((1-(2-(2-(1H-Pyrrol-1-yl)ethoxy)-4-(2-oxopyridin-1(2H)-yl)phenyl)-1H-1,2,3-triazol-4-yl)methyl)-5-chlorothiophene-2-carboxamide]	≤ 100
CN(C)CCN(C)C(=O)c1cc(-n2ccccc2=O)ccc1-n1cc(CNC(=O)c2ccc(Cl)s2)nn1 [Compound 111, 5-Chloro-N-((1-(2-((2-(dimethylamino)ethyl)(methyl)carbamoyl)-4-(2-oxopyridin-1(2H)-yl)phenyl)-1H-1,2,3-triazol-4-yl)methyl)thiophene-2-carboxamide]	100 to 500
O=C(NCc1cn(-c2ccc(-n3ccccc3=O)cc2N2CCSCC2)nn1)c1ccc(Cl)s1 [Compound 10, 5-Chloro-N-((1-(4-(2-oxopyridin-1(2H)-yl)-2-thiomorpholinophenyl)-1H-1,2,3-triazol-4-yl)methyl)thiophene-2-carboxamide]	≤ 100
NCCNc1cc(-n2ccccc2=O)ccc1-n1cc(CNC(=O)c2ccc(Cl)s2)nn1 [Compound 30, N-((1-(2-(2-Aminoethylamino)-4-(2-oxopyridin-1(2H)-yl)phenyl)-1H-1,2,3-triazol-4-yl)methyl)-5-chlorothiophene-2-carboxamide]	≤ 100
C[S+]([O-])c1cc(-n2ccccc2=O)ccc1-n1cc(CNC(=O)c2ccc(Cl)s2)nn1 (centres unmarked) [Compound 51, 5-Chloro-N-((1-(2-(methylsulfoxy)-4-(2-oxopyridin-1(2H)-yl)phenyl)-1H-1,2,3-triazol-4-yl)methyl)thiophene-2-carboxamide]	≤ 100
O=C(NCc1cn(-c2ccc(-n3ccccc3=O)cc2-c2ccnc(Cl)c2)nn1)c1ccc(Cl)s1 [Compound 133, 5-Chloro-N-((1-(2-(2-chloropyridin-4-yl)-4-(2-oxopyridin-1(2H)-yl)phenyl)-1H-1,2,3-triazol-4-yl)methyl)thiophene-2-carboxamide]	≤ 100
O=C(NCc1cn(-c2ccc(-n3ccccc3=O)cc2N2CC[S+]([O-])CC2)nn1)c1ccc(Cl)s1 [Compound 11, 5-Chloro-N-((1-(4-(2-oxopyridin-1(2H)-yl)-2-((1-oxo-)thiomorpholino)phenyl)-1H-1,2,3-triazol-4-yl)methyl)thiophene-2-carboxamide]	≤ 100
Nc1cc(-c2cc(-n3ccccc3=O)ccc2-n2cc(CNC(=O)c3ccc(Cl)s3)nn2)ccn1 [Compound 139, N-((1-(2-(2-Aminopyridin-4-yl)-4-(2-oxopyridin-1(2H)-yl)phenyl)-1H-1,2,3-triazol-4-yl)methyl)-5-chlorothiophene-2-carboxamide]	≤ 100
NCCCOc1cc(-n2ccccc2=O)ccc1-n1cc(CNC(=O)c2ccc(Cl)s2)nn1 [Compound 68, N-((1-(2-(3-Aminopropoxy)-4-(2-oxopyridin-1(2H)-yl)phenyl)-1H-1,2,3-triazol-4-yl)methyl)-5-chlorothiophene-2-carboxamide]	≤ 100
CSc1cc(-n2ccccc2=O)ccc1-n1cc(CNC(=O)c2ccc(Cl)s2)nn1 [Compound 50, 5-Chloro-N-((1-(2-(methylthio)-4-(2-oxopyridin-1(2H)-yl)phenyl)-1H-1,2,3-triazol-4-yl)methyl)thiophene-2-carboxamide]	≤ 100
NC(=O)CNC(=O)c1cc(-n2ccccc2=O)ccc1-n1cc(CNC(=O)c2ccc(Cl)s2)nn1 [Compound 108, N-((1-(2-((2-Amino-2-oxoethyl)carbamoyl)-4-(2-oxopyridin-1(2H)-yl)phenyl)-1H-1,2,3-triazol-4-yl)methyl)-5-chlorothiophene-2-carboxamide]	100 to 500
O=C(NCc1cn(-c2ccc(-n3ccccc3=O)cc2OC2CCNCC2)nn1)c1ccc(Cl)s1 [Compound 57, 5-Chloro-N-((1-(4-(2-oxopyridin-1(2H)-yl)-2-(piperidin-4-yloxy)phenyl)-1H-1,2,3-triazol-4-yl)methyl)thiophene-2-carboxamide]	≤ 100
Cc1cc(COc2cc(-n3ccccc3=O)ccc2-n2cc(CNC(=O)c3ccc(Cl)s3)nn2)no1 [Compound 179, 5-Chloro-N-((1-(2-((5-methylisoxazol-3-yl)methoxy)-4-(2-oxopyridin-1(2H)-yl)phenyl)-1H-1,2,3-triazol-4-yl)methyl)thiophene-2-carboxamide]	≤ 100
